Where “and” joins values, the source holds several entries; their conditions need not be identical. Identical values can stand only once.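 A five-concentration, 48-hour dose response in 96-well plates underlies each endpoint, interpolated linearly between surrounding concentrations. GI50 is the concentration that inhibits growth by half. TGI: total growth inhibition.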
Assays:
Test in all cases: inhibition of tumour cell growth, NCI panel, 48 h
NCI-H460 lung = system: NCI-H460 lung
HOP-62 NSCLC = system: HOP-62 NSCLC
HCT-15 colon = system: HCT-15 colon
HOP-92 NSCLC = system: HOP-92 NSCLC
COLO 205 colon = system: COLO 205 colon
OVCAR-5 ovarian = system: OVCAR-5 ovarian
SK-OV-3 ovarian = system: SK-OV-3 ovarian
SF-295 CNS = system: SF-295 CNS
SN12C renal = system: SN12C renal
CAKI-1 renal = system: CAKI-1 renal

| Compound | TGI (NCI-H460 lung) | TGI (HOP-62 NSCLC) | TGI (HCT-15 colon) | TGI (HOP-92 NSCLC) | TGI (COLO 205 colon) | TGI (OVCAR-5 ovarian) | TGI (SK-OV-3 ovarian) | TGI (SF-295 CNS) | TGI (SN12C renal) | TGI (CAKI-1 renal) | GI50 (NCI-H460 lung) |
| --- | --- | --- | --- | --- | --- | --- | --- | --- | --- | --- | --- |
| CC(=O)NC1C(OCc2ccccc2)OC(CO)C(O)C1OC(C)C(=O)N[C@@H](C)C(=O)N[C@H](CCC(=O)NCCNCCNc1c2ccccc2nc2cccc([N+](=O)[O-])c12)C(N)=O (stereo partly specified) | 0.0486 µM | 5.17 µM | 1.63 µM | 0.169 µM | 0.198 µM | 5.19 µM | 2.05 µM | 1.79 µM | 0.99 µM | 0.565 µM |  |
| CC1=NN(C(=O)CC(=O)Nc2cccc(C)c2)C(=O)C1N=Nc1ccc(S(=O)(=O)CCOS(=O)(=O)O)cc1 (stereo unspecified) | 11.8 µM | 25.9 µM | 4.83 µM | 17.9 µM | 8.42 µM | 66.2 µM | 17 µM | 11.3 µM | 5.51 µM | 2.96 µM |  |
| COC1/C=C/C(C)C(O)CC(O)/C=C/C(C)C(C(C)C(OC)C(C)CCC(=O)C(C)C(C/C=C/N(C)C=O)OC)OC(=O)/C=C/C=C(\C)CC(OC)CC2=CC(=O)O[C@@H](C(C)C(OC)C1)[C@H]2O (stereo partly specified) | 0.162 µM | 0.0257 µM | 0.0893 µM | 0.0106 µM | 0.0885 µM | 0.228 µM | 0.108 µM | < 0.005 µM | 1.78 µM | 0.0192 µM |  |
| ClC1=NN=C(c2c[nH]c3ccccc23)CC1NCc1ccccc1 (stereo unspecified) | > 100 µM | > 100 µM | > 100 µM | > 100 µM | > 100 µM | > 100 µM | > 100 µM | > 100 µM | > 100 µM | > 100 µM |  |
| Clc1ccc2c(NCCCCCCNc3ccnc4cc(Cl)ccc34)ccnc2c1 | 6.3 µM | 13.8 µM | 8.08 µM | 5.8 µM | 4.62 µM | 17.9 µM | 17.5 µM | 5.56 µM | 16.6 µM | 24.1 µM |  |
| CCOC(=O)c1cc(-c2ccc(OC)cc2)c([N+](=O)[O-])[nH]1 | > 10 µM | > 10 µM | > 10 µM | > 10 µM | > 10 µM | > 10 µM | > 10 µM | > 10 µM | > 10 µM | > 10 µM |  |
| Oc1ccc(C(O)C2CCCCN2)cc1O (stereo unspecified) | > 100 µM | > 100 µM | > 100 µM | > 100 µM | > 100 µM | > 100 µM | > 100 µM | > 100 µM | > 100 µM | > 100 µM |  |
| COC(=O)C1OC(O[C@H]2CC[C@]3(C)[C@H]4CC=C5[C@@H]6CC(C)(C)CC[C@]6(C(=O)OC6OCC(O)C(O)C6OC6OC(C)C(OC7OCC(O)C(O)C7O)C(O)C6O)[C@H](O)C[C@@]5(C)[C@]4(C)CC[C@H]3C2(C)C)C(O)C(O)C1O (stereo partly specified) | > 100 µM and 33.4 µM | 17.8 µM and 22.9 µM | 42.8 µM and 27.5 µM | 5.2 µM and 8.4 µM | 3.02 µM and 3.31 µM | 15.8 µM and 19.4 µM | 23.5 µM and 26.3 µM | 13.7 µM and 14.9 µM | 3.62 µM and 3.7 µM | 11.2 µM and 14.9 µM | 34 µM and 16.9 µM |
| COc1ccc(CCNC(=O)Cc2ccccc2CO)cc1OC | > 100 µM | > 100 µM | > 100 µM | > 100 µM | > 100 µM | > 100 µM | > 100 µM | > 100 µM | > 100 µM | > 100 µM |  |
| NC(=O)[C@H](Cc1ccc(O)cc1)Nc1c(O)c2c(c(O)c1Cl)C(=O)C=CC2=O | > 10 µM | > 10 µM | 3.89 µM | 4.72 µM | 3.36 µM | > 10 µM | > 10 µM | > 10 µM | > 6.94 µM | 5.18 µM |  |
| O=C(CNc1ccccc1C(=O)O)Nn1cnc2ccc(S(=O)(=O)Nc3ccccc3C(=O)O)cc2c1=O | > 100 µM | > 100 µM | > 100 µM | > 100 µM | > 100 µM | > 100 µM | > 100 µM | > 100 µM | > 100 µM | > 100 µM |  |
| O=C(O)CSC(CC(=O)c1ccc(Cl)cc1)c1ccc(Cl)cc1 (stereo unspecified) | > 100 µM | 97.1 µM | > 100 µM | 73.2 µM | > 100 µM | > 100 µM | 97.9 µM | > 100 µM | > 100 µM | > 100 µM |  |
| CSC(SC)=C(C(=O)c1ccc(Cl)cc1)n1c(=O)sc2cc(Br)ccc21 | > 100 µM | > 100 µM | > 100 µM | > 100 µM | > 100 µM | > 100 µM | > 100 µM | > 100 µM | > 100 µM | > 100 µM |  |
| CC(=O)CC1(CBr)Nc2ccc([N+](=O)[O-])cc2NC1=O (stereo unspecified) | > 100 µM | > 100 µM | > 100 µM | > 100 µM | > 100 µM | > 100 µM | > 100 µM | > 100 µM | > 100 µM | > 100 µM |  |
